Data: ChEMBL document CHEMBL5136996, “Semisynthesis and Non-Small-Cell Lung Cancer Cytotoxicity Evaluation of Germacrane-Type Sesquiterpene Lactones from Elephantopus scaber” (J Nat Prod, 2022)
pIC50: −log10 of the molar value. Active and inactive are the calls of the source. The calls are words filed in the database; no cut-off is given here.

Tests used:
[1] = system: NCI-H460; assay: Cytotoxicity against human NCI-H460 cells assessed as reduction in cell viability incubated for 48 hrs by MTT assay; type: functional, cell-based; conditions: NCI-H460, 48 h
[2] = system: A549; assay: Cytotoxicity against human A549 cells assessed as reduction in cell viability incubated for 48 hrs by MTT assay; type: functional, cell-based; conditions: A549, 48 h
[3] = system: A549; assay: Induction of cell cycle arrest in human A549 cells assessed as accumulation of cells at G2/M phase incubated for 48 hrs by PI staining based flow cytometry (reference value: 9.7 to 17.2%); type: functional
[4] = system: A549; assay: Induction of apoptosis in human A549 cells assessed as early apoptotic cells at 10 uM incubated for 48 hrs by AnnexinV-FITC/PI staining based flow cytometry (reference value: 2.07 to 3.24%); type: functional
[5] = system: A549; assay: Induction of apoptosis in human A549 cells assessed as necrotic cells at 10 uM incubated for 48 hrs by AnnexinV-FITC/PI staining based flow cytometry (reference value: 2.23 to 4.25%); type: functional
[6] = system: A549; assay: Induction of intracellular ROS generation in human A549 cells incubated for 48 hrs by H2DCF-DA staining based flow cytometry; type: functional, cell-based; conditions: dose 3-10 µM, DDE = dose-dependent effect
[7] = system: A549; assay: Induction of apoptosis in human A549 cells assessed as increase in cleaved caspase-9 expression level at 3 to 10 uM incubated for 48 hrs by western blot analysis; type: functional, cell-based; conditions: dose 3-10 µM
[8] = Cytotoxicity against rat Primary hepatocytes assessed as cell viability at 25 uM incubated for 12 hrs; type: toxicity, cell-based, Hepatocyte; conditions: read-out: Activity
[9] = system: A549; assay: Induction of apoptosis in human A549 cells assessed as late apoptotic cells at 10 uM incubated for 48 hrs by AnnexinV-FITC/PI staining based flow cytometry (reference value: 1.58 to 2.23%); type: functional
[10] = system: A549; assay: Induction of apoptosis in human A549 cells assessed as decrease in mitochondrial membrane potential by measuring reduction in ratio of red to green fluorescence intensity at 3 to 10 uM incubated for 48 hrs by JC-1 staining based flow cytometry; type: functional, cell-based; conditions: dose 3-10 µM
[11] = system: A549; assay: Induction of apoptosis in human A549 cells assessed as viable cells at 3 uM incubated for 48 hrs by AnnexinV-FITC/PI staining based flow cytometry (reference value: 91.5 to 92.9%); type: functional; conditions: read-out: Activity
[12] = system: A549; assay: Induction of apoptosis in human A549 cells assessed as increase in cleaved caspase-3 expression level at 3 to 10 uM incubated for 48 hrs by western blot analysis; type: functional, cell-based; conditions: dose 3-10 µM
[13] = system: A549; assay: Induction of apoptosis in human A549 cells assessed as viable cells at 10 uM incubated for 48 hrs by AnnexinV-FITC/PI staining based flow cytometry (reference value: 91.5 to 92.9%); type: functional; conditions: read-out: Activity
[14] = system: A549; assay: Induction of apoptosis in human A549 cells assessed as late apoptotic cells at 3 uM incubated for 48 hrs by AnnexinV-FITC/PI staining based flow cytometry (reference value: 1.58 to 2.23%); type: functional
[15] = system: A549; assay: Induction of apoptosis in human A549 cells assessed as early apoptotic cells at 3 uM incubated for 48 hrs by AnnexinV-FITC/PI staining based flow cytometry (reference value: 2.07 to 3.24%); type: functional
[16] = system: A549; assay: Induction of apoptosis in human A549 cells assessed as necrotic cells at 3 uM incubated for 48 hrs by AnnexinV-FITC/PI staining based flow cytometry (reference value: 2.23 to 4.25%); type: functional

Row | SMILES | pIC50 [1] | pIC50 [2] | also measured
1 | C=C1C(=O)O[C@H]2CC3=C[C@H](C/C(C)=C/[C@@H](OC(=O)c4ccncc4)[C@H]12)OC3=O | 5.25 | < 5.00 | –
2 | C=C1C(=O)O[C@H]2CC3=C[C@H](C/C(C)=C/[C@@H](OC(=O)C45CCC(C)(C(=O)O4)C5(C)C)[C@H]12)OC3=O | 5.70 | 5.47 | –
3 | C=C1C(=O)O[C@H]2CC3=C[C@H](C/C(C)=C/[C@@H](OC(=O)C(C)(C)CC)[C@H]12)OC3=O | 5.21 | 5.66 | –
4 | C=C1C(=O)O[C@H]2CC3=C[C@H](C/C(C)=C/[C@@H](OC(=O)c4ccc(C(=O)O[C@@H]5/C=C(\C)C[C@H]6C=C(C[C@@H]7OC(=O)C(=C)[C@H]75)C(=O)O6)cc4)[C@H]12)OC3=O | 6.15 | 5.82 | –
5 | C=C1C(=O)O[C@H]2CC3=C[C@H](C/C(C)=C/[C@@H](OC(=O)CC(C)C)[C@H]12)OC3=O | 5.42 | 5.60 | –
6 | C=C1C(=O)O[C@H]2CC3=C[C@H](C/C(C)=C/[C@@H](OC(=O)c4ccc([N+](=O)[O-])cc4)[C@H]12)OC3=O | < 5.00 | < 5.00 | –
7 | C=C1C(=O)O[C@@H]2/C=C(\C)C[C@H]3C=C(C[C@H](OC(=O)/C(C)=C\C)[C@@H]12)C(=O)O3 | < 5.00 | < 5.00 | –
8 | CO[C@H]1C(=O)O[C@H]2CC3=C[C@H](C/C(C)=C/[C@@H](O)[C@@H]21)OC3=O | < 5.00 | < 5.00 | –
9 | C=C1C(=O)O[C@H]2CC3=C[C@H](C/C(C)=C/[C@@H](OC(=O)CCCCCCC(=O)O[C@@H]4/C=C(\C)C[C@H]5C=C(C[C@@H]6OC(=O)C(=C)[C@H]64)C(=O)O5)[C@H]12)OC3=O | 5.49 | 6.15 | Activity [3]: 62.4%; Activity [4]: 30.9%; Activity [5]: 10.4%; Activity [6]: Dde; Activity [7]: Active; viability at 12 h, 25 µM [8]: 59.2%; Activity [9]: 44.1%; Activity [10]: Active; viability at 3 µM [11]: 63.7%; Activity [12]: Active; viability at 10 µM [13]: 14.6%; Activity [14]: 0.7%; Activity [15]: 35.5%; Activity [16]: 0.14%
10 | C=C1C(=O)O[C@H]2CC3=C[C@H](C/C(C)=C/[C@@H](OC(=O)C4CC4)[C@H]12)OC3=O | 5.52 | 5.49 | –
11 | C=C1C(=O)O[C@H]2CC3=C[C@H](C/C(C)=C/[C@@H](OC(=O)c4ccc(C(=O)O[C@@H]5/C=C(\C)C[C@H]6C=C(C[C@@H]7OC(=O)C(=C)[C@H]75)C(=O)O6)s4)[C@H]12)OC3=O | 5.24 | 5.44 | –
12 | C=C1C(=O)O[C@H]2CC3=C[C@H](C/C(C)=C/[C@@H](OC(=O)/C=C/c4ccc5c(c4)OCO5)[C@H]12)OC3=O | 5.03 | 5.34 | –
13 | C=C1C(=O)O[C@H]2CC3=C[C@H](C/C(C)=C/[C@@H](OC(=O)CCl)[C@H]12)OC3=O | < 5.00 | < 5.00 | –
14 | C=C1C(=O)O[C@H]2CC3=C[C@H](C/C(C)=C/[C@@H](OC(=O)c4ccc(-c5ccccc5)cc4)[C@H]12)OC3=O | 5.46 | 5.34 | –
15 | C=C1C(=O)O[C@H]2CC3=C[C@H](C/C(C)=C/[C@@H](OC(=O)CCCC(=O)O[C@@H]4/C=C(\C)C[C@H]5C=C(C[C@@H]6OC(=O)C(=C)[C@H]64)C(=O)O5)[C@H]12)OC3=O | < 5.00 | 5.25 | –
16 | C=C1C(=O)O[C@H]2CC3=C[C@H](C/C(C)=C/[C@@H](OC(=O)C4CCC(F)(F)CC4)[C@H]12)OC3=O | < 5.00 | 5.19 | –
17 | C=C1C(=O)O[C@H]2CC3=C[C@H](C/C(C)=C/[C@@H](OC(=O)/C=C/c4ccc(C(F)(F)F)cc4)[C@H]12)OC3=O | 5.85 | 5.23 | –

Row | SMILES | pIC50 [1] | pIC50 [2] | also measured
18 | C=C1C(=O)O[C@H]2CC3=C[C@H](C/C(C)=C/[C@@H](OC(=O)/C=C/c4cccs4)[C@H]12)OC3=O | 5.54 | 5.37 | Activity [3]: 32.6%; Activity [4]: 27.3%; Activity [5]: 10.6%; Activity [6]: Dde; Activity [7]: Active; viability at 12 h, 25 µM [8]: 96.7%; Activity [9]: 23.9%; Activity [10]: Active; viability at 3 µM [11]: 83.2%; Activity [12]: Active; viability at 10 µM [13]: 38.2%; Activity [14]: 1.45%; Activity [15]: 14.8%; Activity [16]: 0.53%
19 | C=C1C(=O)O[C@H]2CC3=C[C@H](C/C(C)=C/[C@@H](OC(=O)CCCCC(=O)O[C@@H]4/C=C(\C)C[C@H]5C=C(C[C@@H]6OC(=O)C(=C)[C@H]64)C(=O)O5)[C@H]12)OC3=O | 5.09 | 5.68 | –
20 | C=C1C(=O)O[C@H]2CC3=C[C@H](C/C(C)=C/[C@@H](OC(=O)CCCCC)[C@H]12)OC3=O | 5.23 | < 5.00 | –
21 | C=C1C(=O)O[C@H]2CC3=C[C@H](C/C(C)=C/[C@@H](OC(=O)/C=C/c4cccc(OC)c4)[C@H]12)OC3=O | < 5.00 | 5.21 | –
22 | C=C1C(=O)O[C@H]2CC3=C[C@H](C/C(C)=C/[C@@H](OC(=O)/C=C\c4ccc5c(c4)OCO5)[C@H]12)OC3=O | < 5.00 | 5.21 | –
23 | C=C1C(=O)O[C@@H]2C3O[C@]3(C)CC/C=C(\C)CC[C@@H]12 (stereo partly specified) | 5.02 | < 5.00 | –
24 | C=C1C(=O)O[C@H]2CC3=C[C@H](C/C(C)=C/[C@@H](OC(=O)c4ccc(C(C)=O)cc4)[C@H]12)OC3=O | 5.66 | 5.64 | –
25 | C=C1C(=O)O[C@H]2CC3=C[C@H](C/C(C)=C/[C@@H](OC(=O)/C=C/c4ccncc4)[C@H]12)OC3=O | 5.68 | 5.40 | –
26 | C=C1C(=O)O[C@H]2CC3=C[C@H](C/C(C)=C/[C@@H](O)[C@H]12)OC3=O | < 5.00 | < 5.00 | –
27 | C=C1C(=O)O[C@H]2CC3=C[C@H](C/C(C)=C/[C@@H](OC(=O)CC4CCCCC4)[C@H]12)OC3=O | 5.70 | 5.16 | –
28 | C=C1C(=O)O[C@H]2CC3=C[C@H](C/C(C)=C/[C@@H](OC(=O)/C=C/c4ccccc4)[C@H]12)OC3=O | < 5.00 | 5.32 | –
29 | C=C1C(=O)O[C@H]2CC3=C[C@H](C/C(C)=C/[C@@H](OC(=O)C4(NC(=O)OCc5ccccc5)CC4)[C@H]12)OC3=O | 5.52 | 5.24 | –
30 | C=C1C(=O)O[C@H]2CC3=C[C@H](C/C(C)=C/[C@@H](OC(=O)CCSSCCC(=O)O[C@@H]4/C=C(\C)C[C@H]5C=C(C[C@@H]6OC(=O)C(=C)[C@H]64)C(=O)O5)[C@H]12)OC3=O | 5.11 | 5.51 | –
31 | C=C1C(=O)O[C@H]2CC3=C[C@H](C/C(C)=C/[C@@H](OC(=O)/C=C/c4ccc(N(C)C)cc4)[C@H]12)OC3=O | 5.89 | < 5.00 | –
32 | C=C1C(=O)O[C@H]2CC3=C[C@H](C/C(C)=C/[C@@H](OC(=O)c4ccc(C(F)(F)F)cc4)[C@H]12)OC3=O | < 5.00 | < 5.00 | –
33 | C=C1C(=O)O[C@H]2CC3=C[C@H](C/C(C)=C/[C@@H](OC(=O)CCCCBr)[C@H]12)OC3=O | < 5.00 | < 5.00 | –
34 | C=C1C(=O)O[C@H]2CC3=C[C@H](C/C(C)=C/[C@@H](OC(=O)CCC(=O)O[C@@H]4/C=C(\C)C[C@H]5C=C(C[C@@H]6OC(=O)C(=C)[C@H]64)C(=O)O5)[C@H]12)OC3=O | < 5.00 | < 5.00 | –
